From paper PMC6053381, “Novel 2-phenyloxypyrimidine derivative induces apoptosis and autophagy via inhibiting PI3K pathway and activating MAPK/ERK signaling in hepatocellular carcinoma cells” (Scientific Reports, 2018)

Tests used:
PDGFRα = PDGFRα (Homo sapiens, UniProt P16234); assay: PDGFR kinase assay, Caliper microfluidic mobility shift; format: biochemical
Method: (§1) In vitro inhibitory activities of all compounds at 1 μM against PDGFRα and PDGFRβ were evaluated using Caliper microfluidic mobility shift technology. […] At the same concentration, only E5 inhibited greater than 50% of PDGFRβ activity (Fig. 2B).
(§2) PDGFR kinase activity was measured using Caliper microfluidic mobility shift technology. Briefly, 2 μL compound solution (25 μM) in 25% DMSO per well were added into the 384 well microtiter plates. Then, 10 μL per well of enzyme solution (100 mM HEPES, 10 mM MgCl2, Brij35 (30%) 100 μL, 1 mM DTT, 20 ng enzyme) was added. After a brief centrifugation at 1,000 rpm, the kinase reactions were started by addition of 38 μL per well of peptide/ATP-solution (40 μM ATP, 6.5 μM peptide 5′-FAM-KKKKEEIYFFF-NH2, Tris-HCl buffer, pH 7.0) incubated at 30 °C for 60 min and stopped by the addition of 20 μL 35 mM EDTA per well. The electrophoretic separation of the phosphorylated and non-phosphorylated peptides was then carried out on LabChip EZ Reader II (Caliper Life Sciences). All other kinase reactions were carried out as previously reported using the Kinase-Glo Plus or ADP-Glo assay. Kinase inhibition rates were calculated per manufacturer’s instructions.

PDGFRβ = PDGFRβ (Homo sapiens, UniProt P09619); assay: as above; format: biochemical; details: averages of two separate experiments
Chain of PDGFRβ (P09619 33-1106): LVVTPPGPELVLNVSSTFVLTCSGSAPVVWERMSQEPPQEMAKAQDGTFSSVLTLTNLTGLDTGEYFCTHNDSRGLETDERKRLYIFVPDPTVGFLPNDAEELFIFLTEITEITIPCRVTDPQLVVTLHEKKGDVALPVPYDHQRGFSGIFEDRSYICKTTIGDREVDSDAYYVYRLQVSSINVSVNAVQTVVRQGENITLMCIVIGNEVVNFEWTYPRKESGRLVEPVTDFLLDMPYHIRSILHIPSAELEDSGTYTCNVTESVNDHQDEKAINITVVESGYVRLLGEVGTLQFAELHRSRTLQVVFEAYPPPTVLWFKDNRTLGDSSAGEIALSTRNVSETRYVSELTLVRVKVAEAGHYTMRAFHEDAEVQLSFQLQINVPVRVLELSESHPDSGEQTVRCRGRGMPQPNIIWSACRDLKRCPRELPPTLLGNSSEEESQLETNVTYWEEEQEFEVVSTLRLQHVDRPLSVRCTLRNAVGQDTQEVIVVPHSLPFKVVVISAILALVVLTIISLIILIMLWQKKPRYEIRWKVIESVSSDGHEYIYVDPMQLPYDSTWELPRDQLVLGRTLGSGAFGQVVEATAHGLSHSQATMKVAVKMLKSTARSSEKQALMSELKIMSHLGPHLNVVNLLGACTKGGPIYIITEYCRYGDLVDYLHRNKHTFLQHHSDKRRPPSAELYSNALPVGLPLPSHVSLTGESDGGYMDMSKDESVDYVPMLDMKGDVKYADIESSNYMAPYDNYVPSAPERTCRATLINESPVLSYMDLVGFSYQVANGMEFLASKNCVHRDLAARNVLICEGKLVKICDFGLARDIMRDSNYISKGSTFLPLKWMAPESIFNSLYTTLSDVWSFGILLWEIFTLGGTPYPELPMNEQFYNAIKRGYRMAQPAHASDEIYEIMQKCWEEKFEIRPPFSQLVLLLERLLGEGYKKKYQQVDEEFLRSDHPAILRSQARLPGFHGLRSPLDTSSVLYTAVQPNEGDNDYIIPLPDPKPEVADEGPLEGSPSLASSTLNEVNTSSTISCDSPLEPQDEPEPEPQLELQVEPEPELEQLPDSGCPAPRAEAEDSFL
Method: as §1, §2

EGFR = EGFR (Homo sapiens, UniProt P00533); assay: Kinase profiling (Kinase-Glo Plus or ADP-Glo); format: biochemical; details: averages of two separate experiments
Method: (§3) To better characterize kinase inhibition, the ability of E5 to inhibit a panel of purified kinases was assessed.
as §2

FGFR2 = FGFR2 (Homo sapiens, UniProt P21802); assay: Kinase profiling (Kinase-Glo Plus or ADP-Glo); format: biochemical; details: averages of two separate experiments
Method: as §3, §2

FLT3 = FLT3 (Homo sapiens, UniProt P36888); assay: Kinase profiling (Kinase-Glo Plus or ADP-Glo); format: biochemical; details: averages of two separate experiments
Chain of FLT3 (P36888 27-993, species assumed): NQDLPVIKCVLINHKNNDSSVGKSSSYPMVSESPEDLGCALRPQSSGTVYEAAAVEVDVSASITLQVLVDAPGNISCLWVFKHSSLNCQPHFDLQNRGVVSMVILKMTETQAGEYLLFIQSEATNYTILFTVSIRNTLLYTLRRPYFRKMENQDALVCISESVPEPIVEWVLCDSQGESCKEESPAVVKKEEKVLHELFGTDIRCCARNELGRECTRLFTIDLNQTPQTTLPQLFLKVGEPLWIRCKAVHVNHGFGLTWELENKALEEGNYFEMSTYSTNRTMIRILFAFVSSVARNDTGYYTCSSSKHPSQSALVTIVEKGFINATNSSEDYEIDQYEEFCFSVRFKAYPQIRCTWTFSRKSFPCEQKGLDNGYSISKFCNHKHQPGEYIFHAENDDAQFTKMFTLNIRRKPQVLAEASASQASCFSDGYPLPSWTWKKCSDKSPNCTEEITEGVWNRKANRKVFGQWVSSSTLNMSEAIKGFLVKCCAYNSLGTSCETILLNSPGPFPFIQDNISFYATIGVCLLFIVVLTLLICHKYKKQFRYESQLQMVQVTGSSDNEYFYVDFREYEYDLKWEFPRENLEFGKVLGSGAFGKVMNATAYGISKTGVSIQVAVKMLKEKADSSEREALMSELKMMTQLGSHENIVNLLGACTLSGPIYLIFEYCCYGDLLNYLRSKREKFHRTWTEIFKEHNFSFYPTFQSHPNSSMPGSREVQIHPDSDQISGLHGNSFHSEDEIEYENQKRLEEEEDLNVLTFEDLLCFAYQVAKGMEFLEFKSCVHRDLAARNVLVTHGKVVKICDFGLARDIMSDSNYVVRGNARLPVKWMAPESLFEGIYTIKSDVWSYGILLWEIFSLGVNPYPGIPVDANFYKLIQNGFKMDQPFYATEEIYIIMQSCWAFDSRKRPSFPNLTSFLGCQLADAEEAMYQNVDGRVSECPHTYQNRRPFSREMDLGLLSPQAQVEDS
Method: as §3, §2

LCK = LCK (Homo sapiens, UniProt P06239); assay: Kinase profiling (Kinase-Glo Plus or ADP-Glo); format: biochemical; details: averages of two separate experiments
Chain of LCK (P06239 whole entry, species assumed): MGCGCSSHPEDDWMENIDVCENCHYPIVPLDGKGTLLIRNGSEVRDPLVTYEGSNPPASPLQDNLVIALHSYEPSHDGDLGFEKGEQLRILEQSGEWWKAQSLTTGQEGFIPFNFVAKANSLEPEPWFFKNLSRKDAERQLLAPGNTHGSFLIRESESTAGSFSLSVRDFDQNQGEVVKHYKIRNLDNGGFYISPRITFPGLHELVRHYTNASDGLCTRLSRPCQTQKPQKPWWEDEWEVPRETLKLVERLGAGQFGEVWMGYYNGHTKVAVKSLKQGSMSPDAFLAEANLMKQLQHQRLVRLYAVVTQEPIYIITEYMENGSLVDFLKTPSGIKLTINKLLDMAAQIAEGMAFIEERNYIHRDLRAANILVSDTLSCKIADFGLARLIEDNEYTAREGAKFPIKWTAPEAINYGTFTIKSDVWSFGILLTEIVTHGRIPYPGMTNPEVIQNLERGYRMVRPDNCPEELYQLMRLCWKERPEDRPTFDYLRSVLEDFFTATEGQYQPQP
Method: as §3, §2

Raf-1 = Raf-1 (Homo sapiens, UniProt P04049); assay: Kinase profiling (Kinase-Glo Plus or ADP-Glo); format: biochemical; details: averages of two separate experiments
Method: as §3, §2

c-KIT = c-KIT (Homo sapiens, UniProt P10721); assay: Kinase profiling (Kinase-Glo Plus or ADP-Glo); format: biochemical; details: averages of two separate experiments
Chain of c-KIT (P10721 26-976): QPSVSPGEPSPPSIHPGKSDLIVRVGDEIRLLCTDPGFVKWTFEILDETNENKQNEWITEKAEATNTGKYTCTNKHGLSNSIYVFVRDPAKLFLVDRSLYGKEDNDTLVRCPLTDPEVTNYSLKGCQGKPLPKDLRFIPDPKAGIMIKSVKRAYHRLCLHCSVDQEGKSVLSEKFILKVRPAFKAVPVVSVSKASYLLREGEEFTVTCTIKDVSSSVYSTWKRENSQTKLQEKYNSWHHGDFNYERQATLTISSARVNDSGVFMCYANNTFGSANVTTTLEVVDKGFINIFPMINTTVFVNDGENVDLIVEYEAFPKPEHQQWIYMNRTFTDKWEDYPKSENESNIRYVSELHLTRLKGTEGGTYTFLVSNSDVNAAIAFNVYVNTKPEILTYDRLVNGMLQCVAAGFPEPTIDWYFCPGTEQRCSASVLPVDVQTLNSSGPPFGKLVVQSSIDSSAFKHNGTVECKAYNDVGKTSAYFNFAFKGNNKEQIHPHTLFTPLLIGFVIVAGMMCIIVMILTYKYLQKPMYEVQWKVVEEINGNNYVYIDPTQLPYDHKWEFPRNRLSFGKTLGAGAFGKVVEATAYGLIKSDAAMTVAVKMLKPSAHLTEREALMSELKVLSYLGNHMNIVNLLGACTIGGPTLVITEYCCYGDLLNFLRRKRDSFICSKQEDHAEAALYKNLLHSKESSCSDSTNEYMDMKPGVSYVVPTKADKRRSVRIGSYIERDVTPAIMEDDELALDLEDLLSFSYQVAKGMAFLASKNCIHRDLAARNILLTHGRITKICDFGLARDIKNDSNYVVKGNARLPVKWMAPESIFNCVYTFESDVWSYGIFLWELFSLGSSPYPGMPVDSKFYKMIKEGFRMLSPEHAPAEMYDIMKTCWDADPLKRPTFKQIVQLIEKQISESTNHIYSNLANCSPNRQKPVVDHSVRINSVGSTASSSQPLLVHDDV
Method: as §3, §2

BEL7404 = assay: CellTiter-Glo luminescent cell viability assay; format: cell-based; details: Homo sapiens, BEL-7404, 120 h incubation, read-out: Anti-proliferative activity IC50 BEL7404
From the text: (§4) The in vitro antitumor activity of all compounds was screened against six HCC cell lines by CellTiter-Glo luminescent cell viability assay as described earlier. […] After a comprehensive assessment of PDGFR inhibition, cellular activity against HCC cells as well as potential druggability, E5 was chosen to investigate its kinase profiling, antitumor activity and molecular mechanism in the following study. […]
(§5) authenticated by using short tandem repeat (STR) matching analysis. No mycoplasma contamination was detected.
(§6) CellTiter-Glo luminescent cell viability assay
(§7) For experiments hepatocellular carcinoma cells were seeded at 4000 cells per well in 96-well plates. After overnight incubation, solution of compounds in DMSO at various concentrations were added to the cells and further incubated for 120 h. Cell viability was measured with the CellTiter-Glo Luminescent Cell Viability Assay (Promega) according to the manufacturer’s instructions. Luminescence was measured using an EnVision Multilabel Plate Reader (Perkin-Elmer). The cytotoxicity of the compounds was expressed as the percent age of luminescence relative to that of untreated cells . The concentration of compound producing 50% of cell proliferation (IC50) was calculated by nonlinear regression analysis of the response-concentration (log) curve, using the Graph-Pad Prism program package (Graph Pad Software; San Diego, CA). Results are expressed as the means of two […] experiments

Hep3B = assay: CellTiter-Glo luminescent cell viability assay; format: cell-based; details: Homo sapiens, Hep3B, 120 h incubation, read-out: Anti-proliferative activity IC50 Hep3B
From the text: as §4, §5, §6, §7

MHCC97-L = assay: CellTiter-Glo luminescent cell viability assay; format: cell-based; details: MHCC97L, 120 h incubation, read-out: Anti-proliferative activity IC50 MHCC97-L
From the text: as §4, §5, §6, §7

QGY-7703 = assay: CellTiter-Glo luminescent cell viability assay; format: cell-based; details: Homo sapiens, QGY-7703, 120 h incubation, read-out: Anti-proliferative activity IC50 QGY-7703
From the text: as §4, §5, §6, §7

SMMC-7721 = assay: CellTiter-Glo luminescent cell viability assay; format: cell-based; details: Homo sapiens, SMMC-7721, 120 h incubation, read-out: Anti-proliferative activity IC50 SMMC-7721
From the text: as §4, §5, §6, §7

SNU368 = assay: CellTiter-Glo luminescent cell viability assay; format: cell-based; details: 120 h incubation, read-out: Anti-proliferative activity IC50 SNU368
From the text: as §4, §5, §6, §7

Bel7404 cells [1] = assay: Colony formation assay; format: cell-based; details: 0–20 μM, 24 h treatment, two weeks culture
Method: (§8) Cells (300/well) were seeded in 24-well plates and incubated overnight in a humidified atmosphere of 5% CO2 at 37 °C. Incremental concentrations of E5 (0–20 μM) were then added, and the medium was replaced with fresh culture medium containing 10% FBS after 24 h. After two weeks of culture, colonies were fixed with methanol, stained with 1% crystal violet and colonies containing more than 50 cells were counted.

HepG2 cells [2] = assay: Colony formation assay; format: cell-based; details: 0–20 μM, 24 h treatment, two weeks culture
Method: as §8

Bel7404 cells [3] = assay: Apoptosis by Annexin V/PI flow cytometry; format: cell-based; details: 24 h, Annexin V/PI double staining
Method: (§9) We next explored the apoptosis-inducing ability of E5 in HCC cells. Bel7404 and HepG2 cells were treated with E5 for 24 h and stained with the fluorescent DNA-binding dye, Hoechst 33258. The cells were brightly stained in a dose-dependent manner, showing a typical morphological sign of apoptosis (Fig. 5A). […] Furthermore, E5 induced a specific cleavage of PARP and a decrease of pro-form of caspase-3, caspase-7 and caspase-9 (Fig. 5C). […] In addition, the pan-caspase inhibitor Z-VAD-FMK partially rescued the viability of HCC cells reduced by E5, implying that E5 might also induce non-apoptotic form of cell death (Fig. 5D).
(§10) Cells were incubated with E5 for 24 h, after which cells were washed, stained and subjected to flow cytometry analysis. The cell cycle was analyzed by staining with propidium iodide (PI), and the extent of cell death/apoptosis was evaluated by double staining with annexin V-FITC and PI. The fluorescence was measured with a FACScan flow cytometer (Becton Dickinson, USA).

HepG2 cells [4] = assay: Apoptosis by Annexin V/PI flow cytometry; format: cell-based; details: 24 h, Annexin V/PI double staining
Method: as §9, §10

Chain of PDGFRα (P16234 24-1089): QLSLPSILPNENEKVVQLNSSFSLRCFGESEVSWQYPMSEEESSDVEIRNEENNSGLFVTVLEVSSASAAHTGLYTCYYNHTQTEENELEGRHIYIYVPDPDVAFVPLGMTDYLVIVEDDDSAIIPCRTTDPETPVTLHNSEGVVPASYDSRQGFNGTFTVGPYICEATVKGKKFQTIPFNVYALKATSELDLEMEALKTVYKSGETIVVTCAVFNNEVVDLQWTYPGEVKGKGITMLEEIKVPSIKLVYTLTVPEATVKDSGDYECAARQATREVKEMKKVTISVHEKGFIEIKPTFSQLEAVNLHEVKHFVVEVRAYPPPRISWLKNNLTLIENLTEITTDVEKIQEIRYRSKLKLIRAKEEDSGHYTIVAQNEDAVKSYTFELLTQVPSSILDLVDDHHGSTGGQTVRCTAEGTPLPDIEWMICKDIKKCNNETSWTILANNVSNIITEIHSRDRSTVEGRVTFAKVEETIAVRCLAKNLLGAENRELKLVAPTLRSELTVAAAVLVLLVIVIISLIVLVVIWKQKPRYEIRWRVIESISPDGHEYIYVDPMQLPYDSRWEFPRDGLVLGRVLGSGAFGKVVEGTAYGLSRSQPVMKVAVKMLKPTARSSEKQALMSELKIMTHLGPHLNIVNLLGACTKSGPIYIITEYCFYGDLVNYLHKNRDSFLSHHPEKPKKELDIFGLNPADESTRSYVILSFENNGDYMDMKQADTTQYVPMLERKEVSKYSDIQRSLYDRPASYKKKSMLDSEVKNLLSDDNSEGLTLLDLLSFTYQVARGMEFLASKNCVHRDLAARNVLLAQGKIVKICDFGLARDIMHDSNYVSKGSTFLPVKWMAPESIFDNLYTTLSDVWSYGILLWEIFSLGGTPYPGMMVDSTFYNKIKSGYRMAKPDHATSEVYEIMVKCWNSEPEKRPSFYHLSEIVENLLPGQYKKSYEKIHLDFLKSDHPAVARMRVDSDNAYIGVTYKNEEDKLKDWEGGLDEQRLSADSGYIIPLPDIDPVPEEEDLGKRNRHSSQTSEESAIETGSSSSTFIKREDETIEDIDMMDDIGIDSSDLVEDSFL

Selectivity index (PDGFRα; IC50 (PDGFRβ)/ IC50 (PDGFRα)): 2.32
IC50 (PDGFRα; averages of two separate experiments): 0.4 µM
inhibition at 1 µM (PDGFRα; compound at 1 µM, averages of two separate experiments, read-out: Inhibition effect (%) PDGFRα): > 85%
IC50 (PDGFRβ): 0.93 µM
IC50 PDGFRβ (PDGFRβ): moderate inhibitory activity
inhibition at 1 µM (PDGFRβ; compound at 1 µM, read-out: Inhibition effect (%) PDGFRβ): > 50%
IC50 (EGFR): > 25 µM
IC50 (FGFR2): > 25 µM
IC50 (FLT3): > 25 µM
IC50 FLT3 (FLT3): no inhibition
IC50 (LCK): > 25 µM
IC50 (Raf-1): > 25 µM
IC50 (c-KIT): 0.51 µM
IC50 (BEL7404): 0.8 µM
IC50 (Hep3B): 2.6 µM
IC50 (SMMC-7721): 1 µM
IC50 (SNU368): 8.9 µM
SMILES: Cc1ccc(NC(=O)c2ccc(CN3CCN(C)CC3)cc2)cc1Oc1nccc(-c2cc3ccccc3o2)n1 [E5, N-(3-((4-(benzofuran-2-yl)pyrimidin-2-yl)oxy)-4-methylphenyl)-4-((4-methylpiperazin-1-yl)methyl)benzamide]
IC50 (MHCC97-L): 10 µM
IC50 (QGY-7703): 15.1 µM
Effect on clonogenicity (Bel7404 cells [1]): significantly inhibited the clonogenicity
Effect on clonogenicity (HepG2 cells [2]): significantly inhibited the clonogenicity
Apoptosis induction (Bel7404 cells [3]): induced apoptosis in a dose-dependent manner
Apoptosis induction (HepG2 cells [4]): induced apoptosis in a dose-dependent manner
